Measured values from US20240131036A1, “COMPOSITIONS AND METHODS OF TREATING CONDITIONS” (priority 2020, published 2024).
Like-named read-outs stand apart in the source and are kept apart here.

Columns and labels:
[1] = very high doses (3-60 μg/kg); cited from earlier work
[2] = target: SARS-CoV-2 3CL^Pro (M^pro) (Severe acute respiratory syndrome coronavirus 2 (2019-nCoV) (SARS-CoV-2), UniProt P0DTD1); experiment: Enzymatic assay for M^pro (3CL Protease, MBP-tagged assay kit); assay type: biochemical; details: for inhibition at 0.2 µM: 2×10^−7 M, read-out: M^pro enzyme inhibition
Description: FIG. 1.3A and 1.3B illustrate the enzyme inhibition by the selected sterols and secosteroids. […] Min=negative control without any enzyme (0% enzyme activity), Max=positive control with enzyme and substrate (100% enzyme activity). […] The statistical significance of differences was evaluated by one-way ANOVA, *p<0.05, **p<0.01, ***p<0.001, for all conditions relative to the ethanol blank, n=3. FIG. 1.3B illustrates the RdRP enzyme activity inhibition by selected sterols and secosteroids. […] Min=negative control without any enzyme (0% enzyme activity), Max=positive control with enzyme and substrate (100% enzyme activity). The statistical significance of differences was evaluated by one-way ANOVA, *p<0.05, **p<0.01, ***p<0.001, for all conditions relative to the ethanol blank, n=3
The SARS-CoV-2 3CL^Pro (M^pro), MBP-tagged Assay Kit (BPS Biosciences, San Diego, CA, USA) was used to measure 3CL Protease (M^pro) activity for screening and profiling applications. The 3CL inhibitor GC376 was included as a positive control and also used as a standard. The assay was performed according to the protocol provided by the manufacturer with the concentration of compounds tested being 10^−7 M.

SARS-CoV-2 RdRP = SARS-CoV-2 RdRP (Severe acute respiratory syndrome coronavirus 2 (2019-nCoV) (SARS-CoV-2), UniProt P0DTD1); experiment: Enzymatic assay for RdRP (AlphaScreen, BPS Biosciences); assay type: biochemical
Description: Min=negative control without any enzyme (0% enzyme activity), Max=positive control with enzyme and substrate (100% enzyme activity). […] The statistical significance of differences was evaluated by one-way ANOVA, *p<0.05, **p<0.01, ***p<0.001, for all conditions relative to the ethanol blank, n=3. […] Min=negative control without any enzyme (0% enzyme activity), Max=positive control with enzyme and substrate (100% enzyme activity). The statistical significance of differences was evaluated by one-way ANOVA, *p<0.05, **p<0.01, ***p<0.001, for all conditions relative to the ethanol blank, n=3
The assay for RdRP activity was outsourced to BPS Biosciences ([…], California, USA) using the following protocol. […] The RdRP reactions were performed in triplicate at 37° C. for 60 min in a 10 μl mixture containing assay buffer, RNA duplex, ATP substrate and enzyme, and the test compound. The reactions were carried out in wells of 384-well Optiplate (PerkinElmer). After enzymatic reactions, 10 μl of anti-Dig Acceptor beads (PerkinElmer, diluted 1:500 with lx detection buffer) were added to the reaction mix. After brief shaking, the plate was incubated for 30 min. […] The values of % activity versus the concentrations of the compound tested were then plotted using non-linear regression analysis of a Sigmoidal dose-response curve generated with the equation Y=B+(T−B)/1+10^((LogEC50−X)×Hill Slope), where Y=percent activity, B=minimum percent activity, T=maximum percent activity, X=logarithm of compound and Hill Slope=slope factor or Hill coefficient. The IC50 value was determined as the concentration causing half-maximal activity.

human epithelial cells = experiment: Gene Set Enrichment Analysis (GSEA) of microarray data (GSE117351), antiviral pathways; assay type: cell-based; design: key: ^..: the effect is absent
[3] = read-out: IC50 for inhibition of the enzyme activity of RdRP
[4] = pathway: Host Interactions with HIV factors
[5] = pathway: Host Interactions with Influenza Factors
[6] = pathway: Influenza Viral RNA Transcription & Replication

For `C=C1CCC(O)CC1=CC=C1CCCC2(C)C1CCC2C(C)(O)C=CC(C)C(C)C` (stereo not shown) [20(OH)D2, 20-hydroxyvitamin D2], the “toxicity and calcemic activity” value [1] is listed as “not toxic and non-calcemic”.
For “(3S,5Z,7E)-9,10-secocholesta-5,7,10(19)-trien-3,25-diol [25(OH)D3, reference compound]”, the “inhibition of M^pro (in words)” value ([2]; 100 nM) is listed as “significant inhibition”, the “toxicity and calcemic activity” value [1] is listed as “calcemic” and the IC50 (SARS-CoV-2 RdRP; [3]) is listed as 1300 nM.
`C[C@H](CCCC(C)(C)O)[C@H]1CC[C@H]2C3=CC=C4C[C@@H](O)CC[C@@]4(C)[C@@H]3CC[C@]12C` [25(OH)L3, 9β,10α-cholesta-5,7-diene-3β,25-diol] gave an inhibition at 0.2 µM [2] of 10 to 19% and an IC50 (SARS-CoV-2 RdRP; [3]) of 500 nM.
For `C=C1/C(=C\C=C2/CCC[C@]3(C)[C@@H]([C@H](C)CCCC(C)(C)O)CC[C@@H]23)C[C@@H](O)C[C@@H]1O` [1,25(OH)2D3, (3S,5Z,7E)-9,10-secocholesta-5,7,10(19)-trien-1,3,25-triol, reference compound], the “toxicity and calcemic activity” value [1] is given as “calcemic”, the “GSEA Direction” value (human epithelial cells) is given as “^” and the “GSEA NES (Normalized Enriched Score)” value (human epithelial cells) is given as “^”. For the same molecule, the “GSEA NES (Normalized Enriched Score)” value (human epithelial cells; pathway: HIV Life Cycle) was −2.503, the “GSEA Direction” value (human epithelial cells; [4]) was “^” and the “GSEA NES (Normalized Enriched Score)” value (human epithelial cells; [4]) was “^”. For the same molecule, the “GSEA Direction” value (human epithelial cells; [5]) was “^”, the “GSEA NES (Normalized Enriched Score)” value (human epithelial cells; [5]) was “^” and the “GSEA Direction” value (human epithelial cells; [6]) was “^”. The “GSEA NES (Normalized Enriched Score)” value (human epithelial cells; [6]) was “^”, the “GSEA NES (Normalized Enriched Score)” value (human epithelial cells; pathway: Late Phase of HIV Life Cycle) was −2.658 and the “GSEA NES (Normalized Enriched Score)” value (human epithelial cells; pathway: Viral Messenger RNA Synthesis) was −2.405. For the same molecule, the “GSEA NES (Normalized Enriched Score)” value (human epithelial cells; pathway: Viral mRNA Translation) was −3.601.
`CC(C)[C@@H](O)CC[C@@H](C)[C@H]1CC[C@H]2C3=CC=C4C[C@@H](O)CC[C@@]4(C)[C@@H]3CC[C@]12C` [24(OH)L3, 9β,10α-cholesta-5,7-diene-3β,24-diol] showed an inhibition at 0.2 µM [2] of 10 to 19% and an IC50 (SARS-CoV-2 RdRP; [3]) of 2500 nM.
Work on `CC(C)CCC[C@](C)(O)[C@H]1CC[C@H]2C3=CC=C4C[C@@H](O)CC[C@]4(C)[C@H]3CC[C@@]21C` [20S(OH)7DHC, Cholesta-5,7-dien-3β,20-diol] yielded an inhibition at 0.2 µM [2] of 10 to 19% and an IC50 (SARS-CoV-2 RdRP; [3]) of 4700 nM.
Molecule `CC(C)CCC[C@](C)(O)[C@H]1CC[C@H]2C3=CC=C4C[C@@H](O)CC[C@@]4(C)[C@@H]3CC[C@@]21C` [20S(OH)L3, 9β,10α-cholesta-5,7-diene-3β,20-diol] has an IC50 (SARS-CoV-2 RdRP; [3]) of 1000 nM.
With `C=C1CC[C@H](O)C/C1=C/C=C1\CCC[C@@]2(C)[C@H]1CC[C@@H]2[C@@](C)(O)CCCC(C)C` [20S(OH)D3, (3S,5Z,7E)-9,10-secocholesta-5,7,10(19)-trien-3,20-diol] the IC50 (SARS-CoV-2 RdRP) was 2600 nM.
